Experimental findings from US10759766B2, “Certain chemical entities, compositions, and methods” (NeuPharma, Inc., priority 2011, dated 2020) are described below.

pIC50: −log10 of the molar value.

As a reminder, the pIC50 is the IC50 on a negative log10 scale, so that one unit is a factor of ten. For orientation: inhibition means the relative decrease from the control value, in per cent.

The test system of one assay is A549 cells. The assay is described as follows: Inhibition of cancer cell growth, MTT assay, A549. Conditions: Homo sapiens, A549, 72 h exposure. It counts as cell-based. In short, it runs like this: (§1)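 Cells grown in RPMI 1640 with 10% FBS were seeded at about 4000 cells/well, left 24 h, then exposed to compound for 72 h (1% DMSO final). MTT absorbance at 570 nm was compared with viable cells at time of addition to give growth inhibition; IC50 from concentration–inhibition plots, triplicates.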
Background: Tetrazolium dyes change colour on reduction, which living cells bring about.

In another assay the target is KDR (VEGFR2) (Homo sapiens (Human), UniProt P35968). As to the kind of experiment: Z′-LYTE kinase inhibition assay (Invitrogen), KDR. It counts as biochemical. Conditions: Z′-LYTE method; for inhibition at 1 µM: 1 μM compound, read-out: % inhibition at 1 μM against KDR; for pIC50: read-out: IC50 against KDR. In short, it runs like this:
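Z′-LYTE FRET assay: 10 μL reactions with 0.5–11.7 ng KDR and 2 μM Tyr 01 peptide in 50 mM HEPES pH 7.5, 10 mM MgCl2, 1 mM EGTA, 0.01% BRIJ-35, 1 h at room temperature. Development Reagent B (1:256) added for 60 min, fluorescence read; IC50 from concentration–inhibition curves.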

In the next assay the target is BRAF V600E (Homo sapiens (Human), UniProt P15056, V600E). As to the kind of experiment: Z′-LYTE kinase inhibition assay (Invitrogen), BRAF V600E. Conditions: Z′-LYTE method; for inhibition at 1 µM: 1 μM compound, read-out: % inhibition at 1 μM against BRAF V600E; for pIC50: read-out: IC50 against BRAF V600E. It counts as biochemical. In short, it runs like this: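 FRET-based Z′-LYTE peptide phosphorylation format in 50 mM HEPES pH 7.5, 0.01% BRIJ-35, 10 mM MgCl2, 1 mM EGTA with ATP. Kinase reaction 60 min at room temperature, then protease development step 60 min at room temperature before fluorescence read. IC50 from compound concentration versus percent inhibition.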

For a further assay, the target named is BRAF (Homo sapiens (Human), UniProt P15056). The assay is described as follows: Z′-LYTE kinase inhibition assay (Invitrogen), BRAF. Conditions: 1 μM compound, Z′-LYTE method; read-out: % inhibition at 1 μM against BRAF. The assay is classed as biochemical. Here is the method:
Inhibitory activities Inhibitory activities of compounds against BRAF, and BRAF V600E were measured by Invitrogen using Z′-LYTE® Method as briefly described in the following. 4× Test compounds are dissolved in 1% DMSO. […] ATP solutions are diluted to a 4×ATP working concentration in Kinase Buffer (50 mM HEPES pH 7.5, 0.01% BRIJ-35, 10 mM MgCl2, 1 mM EGTA). Reaction started by 30-second shaking of mixture consisting of 2.5 μL 4× test compound, […] and 2.5 μL 4×ATP Solution on Bar-coded Corning, low volume NBS, black 384-well plate (Corning Cat. #3676). Then the mixture was incubated for 60-minute at room temperature for the kinase reaction, followed by addition of 5 μL of a 1:1024 dilution of development reagent A and 30-second plate shake. The mixture was then incubated for another 60-minute at room temperature for development reaction. Fluorescence was read by plate reader. IC50 was calculated by plotting the concentration of compound vs the percentage of inhibition in treated wells using GraphPad Prism 5.

The next assay has as its system A375 cells. As to the kind of experiment: Inhibition of cancer cell growth, MTT assay, A375. The assay is classed as cell-based. Conditions: Homo sapiens, A-375, 72 h exposure. In short, it runs like this:
as §1

Chain of BRAF (P15056 whole entry): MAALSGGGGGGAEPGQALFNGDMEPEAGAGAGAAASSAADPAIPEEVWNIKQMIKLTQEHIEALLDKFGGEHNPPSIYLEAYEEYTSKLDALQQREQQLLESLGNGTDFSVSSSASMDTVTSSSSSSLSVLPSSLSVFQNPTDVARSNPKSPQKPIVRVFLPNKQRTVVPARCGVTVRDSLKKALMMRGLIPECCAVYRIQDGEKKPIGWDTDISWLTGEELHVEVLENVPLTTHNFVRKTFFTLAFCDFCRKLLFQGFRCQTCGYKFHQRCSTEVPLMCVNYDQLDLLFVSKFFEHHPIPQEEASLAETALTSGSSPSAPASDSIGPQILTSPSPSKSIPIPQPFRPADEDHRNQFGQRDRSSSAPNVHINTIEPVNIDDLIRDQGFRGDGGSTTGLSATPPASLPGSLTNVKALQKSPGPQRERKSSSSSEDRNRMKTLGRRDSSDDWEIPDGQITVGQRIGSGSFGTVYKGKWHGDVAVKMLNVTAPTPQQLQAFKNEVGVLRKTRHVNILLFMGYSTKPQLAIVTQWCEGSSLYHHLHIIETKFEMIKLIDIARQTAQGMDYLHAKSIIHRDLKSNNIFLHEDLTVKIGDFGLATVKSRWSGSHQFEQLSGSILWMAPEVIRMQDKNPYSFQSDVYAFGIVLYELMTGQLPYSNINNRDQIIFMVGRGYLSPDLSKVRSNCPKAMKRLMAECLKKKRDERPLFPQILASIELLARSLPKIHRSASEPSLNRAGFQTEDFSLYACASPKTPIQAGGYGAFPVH
Chain of KDR (VEGFR2) (P35968 20-1356): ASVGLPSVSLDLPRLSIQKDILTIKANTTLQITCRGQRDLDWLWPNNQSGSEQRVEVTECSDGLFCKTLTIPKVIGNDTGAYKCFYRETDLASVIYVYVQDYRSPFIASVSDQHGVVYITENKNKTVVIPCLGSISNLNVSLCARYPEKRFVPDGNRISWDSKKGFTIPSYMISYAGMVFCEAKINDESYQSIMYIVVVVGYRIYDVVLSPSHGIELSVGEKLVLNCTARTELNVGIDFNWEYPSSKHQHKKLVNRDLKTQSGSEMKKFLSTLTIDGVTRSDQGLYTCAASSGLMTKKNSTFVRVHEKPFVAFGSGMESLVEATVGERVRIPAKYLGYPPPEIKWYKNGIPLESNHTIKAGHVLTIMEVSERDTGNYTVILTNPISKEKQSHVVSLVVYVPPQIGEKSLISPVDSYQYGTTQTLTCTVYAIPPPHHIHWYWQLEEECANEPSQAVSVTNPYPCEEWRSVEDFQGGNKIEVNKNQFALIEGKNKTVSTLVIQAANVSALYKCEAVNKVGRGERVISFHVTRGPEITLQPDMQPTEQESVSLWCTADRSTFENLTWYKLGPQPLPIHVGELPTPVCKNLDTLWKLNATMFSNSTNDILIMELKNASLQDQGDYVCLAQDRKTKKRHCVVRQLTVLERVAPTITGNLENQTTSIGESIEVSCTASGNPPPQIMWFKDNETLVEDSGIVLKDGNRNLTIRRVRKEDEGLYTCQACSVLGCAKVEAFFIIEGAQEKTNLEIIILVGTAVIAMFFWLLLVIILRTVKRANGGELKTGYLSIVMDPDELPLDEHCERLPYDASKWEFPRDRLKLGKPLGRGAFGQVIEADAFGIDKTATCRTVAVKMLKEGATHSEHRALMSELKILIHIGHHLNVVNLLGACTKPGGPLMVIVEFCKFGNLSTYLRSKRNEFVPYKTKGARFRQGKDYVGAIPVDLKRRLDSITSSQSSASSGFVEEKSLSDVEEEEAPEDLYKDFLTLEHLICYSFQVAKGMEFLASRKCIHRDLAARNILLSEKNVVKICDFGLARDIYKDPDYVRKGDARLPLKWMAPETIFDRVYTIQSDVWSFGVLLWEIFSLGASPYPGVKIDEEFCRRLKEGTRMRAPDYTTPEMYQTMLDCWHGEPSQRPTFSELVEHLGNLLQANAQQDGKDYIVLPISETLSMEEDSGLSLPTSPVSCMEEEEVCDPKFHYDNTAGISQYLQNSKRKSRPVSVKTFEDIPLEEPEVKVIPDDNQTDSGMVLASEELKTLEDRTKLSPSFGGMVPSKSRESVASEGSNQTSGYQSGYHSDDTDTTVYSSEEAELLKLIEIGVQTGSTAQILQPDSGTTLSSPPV
Chain of BRAF V600E (P15056 whole entry V600E): as the sequence (P15056 whole entry) above, with V600E counted along it

As to `O=C(Nc1ccc(F)c(C(=O)c2ccc3ncc(N4CCOCC4)nc3c2)c1)c1cccc(C(F)(F)F)c1` [Compound C141, N-(4-fluoro-3-(3-morpholinoquinoxaline-6-carbonyl)phenyl)-3-(trifluoromethyl)benzamide], the pIC50 in the assay with A549 cells was > 5.70; at KDR (VEGFR2), > 7.00; at BRAF V600E, > 7.00; with A375 cells it was > 6.00. Also, the results for the inhibition at 1 µM at KDR (VEGFR2), on BRAF V600E and at BRAF were > 89%, > 89% and < 70%, respectively.
On to `O=C(Nc1cccc(C(=O)c2ccc3ncc(-n4ccnc4)nc3c2)c1)c1ccc(Cl)c(C(F)(F)F)c1` [Compound C132, N-(3-(3-(1H-imidazol-1-yl)quinoxaline-6-carbonyl)phenyl)-4-chloro-3-(trifluoromethyl)benzamide], for which the figures for the pIC50 in the assay on A549 cells and with A375 cells were < 5.30 and > 6.00, respectively. For the same compound, the figures for the inhibition at 1 µM on KDR (VEGFR2), on BRAF V600E and on BRAF were 70 to 89%, > 89% and < 70%, respectively.
The corresponding values for `O=C(Nc1cccc(C(F)(F)F)c1)Nc1ccc(F)c(C(=O)c2ccc3ncc(N4CCNCC4)nc3c2)c1` [Compound C085, 1-(4-fluoro-3-(3-(piperazin-1-yl)quinoxaline-6-carbonyl)phenyl)-3-(3-(trifluoromethyl)phenyl)urea] are > 5.70, > 6.00, > 89%, > 89% and > 89%.
Consider `O=C(Nc1cccc(C(=O)c2ccc3ncc(N4CCCC4)nc3c2)c1)c1cccc(F)c1` [Compound C121, 3-fluoro-N-(3-(3-(pyrrolidin-1-yl)quinoxaline-6-carbonyl)phenyl)benzamide], for which the pIC50 with A549 cells was > 5.70; on KDR (VEGFR2), > 7.00; at BRAF V600E, < 7.00; in the assay with A375 cells, > 6.00. In addition, the inhibition at 1 µM on KDR (VEGFR2) was 70 to 89%; at BRAF V600E it was 70 to 89%; at BRAF it was < 70%.
For `O=C(Nc1cccc(F)c1)Nc1ccc(F)c(C(=O)c2ccc3ncc(N4CCOCC4)nc3c2)c1` [Compound C035, 1-(4-fluoro-3-(3-morpholinoquinoxaline-6-carbonyl)phenyl)-3-(3-fluorophenyl)urea], the pIC50 in the assay on A549 cells was 5.30 to 5.70; on KDR (VEGFR2) it was > 7.00; on BRAF V600E it was > 7.00; in the assay with A375 cells, > 6.00. The inhibition at 1 µM is 70 to 89% on KDR (VEGFR2), > 89% on BRAF V600E and 70 to 89% at BRAF.
In the case of `O=C(Nc1ccc(F)c(C(=O)c2ccc3ncc(N4CCOCC4)nc3c2)c1)c1ccc(Cl)c(C(F)(F)F)c1` [Compound C134, 4-chloro-N-(4-fluoro-3-(3-morpholinoquinoxaline-6-carbonyl)phenyl)-3-(trifluoromethyl)benzamide], the pIC50 in the assay on A549 cells was 5.30 to 5.70; at KDR (VEGFR2), > 7.00; on BRAF V600E, < 7.00; with A375 cells, > 6.00. The inhibition at 1 µM at KDR (VEGFR2) is > 89%; on BRAF V600E, 70 to 89%; on BRAF, < 70%.
Turning to `O=C(Nc1cccc(F)c1)Nc1cc(F)c(F)c(C(=O)c2ccc3ncc(N4CCOCC4)nc3c2)c1` [Compound C039, 1-(3,4-difluoro-5-(3-morpholinoquinoxaline-6-carbonyl)phenyl)-3-(3-fluorophenyl)urea], the pIC50 was 5.30 to 5.70 in the assay on A549 cells and 5.30 to 6.00 in the assay with A375 cells. Also, the inhibition at 1 µM at KDR (VEGFR2) was 70 to 89%; at BRAF V600E it was > 89%; at BRAF it was 70 to 89%.
With `O=C(Nc1cccc(C(=O)c2ccc3nccnc3c2)c1)Nc1ccc(Cl)c(C(F)(F)F)c1` [Compound C004, 1-(4-chloro-3-(trifluoromethyl)phenyl)-3-(3-(quinoxaline-6-carbonyl)phenyl)urea], the pIC50 in the assay with A549 cells is > 5.70; on KDR (VEGFR2), > 7.00; on BRAF V600E, > 7.00; in the assay on A375 cells, 5.30 to 6.00. The inhibition at 1 µM was 70 to 89% on KDR (VEGFR2), > 89% on BRAF V600E and 70 to 89% at BRAF.
Consider `O=C(Nc1cccc(C(F)(F)F)c1)Nc1cc(F)c(F)c(C(=O)c2ccc3ncc(N4CCOCC4)nc3c2)c1` [Compound C040, 1-(3,4-difluoro-5-(3-morpholinoquinoxaline-6-carbonyl)phenyl)-3-(3-(trifluoromethyl)phenyl)urea], for which the pIC50 is > 5.70 in the assay on A549 cells, < 7.00 on KDR (VEGFR2), < 7.00 on BRAF V600E and > 6.00 with A375 cells. Also, the inhibition at 1 µM on KDR (VEGFR2) was 70 to 89%; on BRAF V600E it was 70 to 89%; on BRAF it was < 70%.
Regarding `O=C(Nc1cccc(C(=O)c2ccc3ncc(-c4cn[nH]c4)nc3c2)c1)Nc1ccc(Cl)c(C(F)(F)F)c1` [Compound C029, 1-(3-(3-(1H-pyrazol-4-yl)quinoxaline-6-carbonyl)phenyl)-3-(4-chloro-3-(trifluoromethyl)phenyl)urea], the pIC50 in the assay with A549 cells was 5.30 to 5.70; on KDR (VEGFR2), > 7.00; on BRAF V600E, > 7.00; in the assay with A375 cells, 5.30 to 6.00. For the same compound, the values for the inhibition at 1 µM on KDR (VEGFR2), at BRAF V600E and on BRAF were > 89%, > 89% and 70 to 89%, respectively.
As to `O=C(Nc1cc(F)c(F)c(C(=O)c2ccc3ncc(N4CCOCC4)nc3c2)c1)c1ccc(Cl)c(C(F)(F)F)c1` [Compound C146, 4-chloro-N-(3,4-difluoro-5-(3-morpholinoquinoxaline-6-carbonyl)phenyl)-3-(trifluoromethyl)benzamide], the pIC50 is 5.30 to 5.70 in the assay with A549 cells, > 7.00 on KDR (VEGFR2), < 7.00 at BRAF V600E and > 6.00 in the assay on A375 cells. Also, the inhibition at 1 µM was > 89% at KDR (VEGFR2), 70 to 89% at BRAF V600E and < 70% on BRAF.
Turning to `O=C(Nc1cc(F)cc(C(=O)c2ccc3ncc(N4CCOCC4)nc3c2)c1)c1cccc(C(F)(F)F)c1` [Compound C143, N-(3-fluoro-5-(3-morpholinoquinoxaline-6-carbonyl)phenyl)-3-(trifluoromethyl)benzamide], the pIC50 was 5.30 to 5.70 with A549 cells, > 7.00 on KDR (VEGFR2), > 7.00 at BRAF V600E and > 6.00 with A375 cells. Besides, the inhibition at 1 µM on KDR (VEGFR2) was 70 to 89%; on BRAF V600E it was > 89%; on BRAF, < 70%.
As to `O=C(Nc1cc(F)cc(C(=O)c2ccc3ncc(N4CCOCC4)nc3c2)c1)Nc1cccc(C(F)(F)F)c1` [Compound C038, 1-(3-fluoro-5-(3-morpholinoquinoxaline-6-carbonyl)phenyl)-3-(3-(trifluoromethyl)phenyl)urea], the negative logarithm of the IC50 (pIC50) is > 5.70 in the assay on A549 cells, > 7.00 on KDR (VEGFR2), > 7.00 at BRAF V600E and > 6.00 in the assay with A375 cells. Also, the inhibition at 1 µM was 70 to 89% on KDR (VEGFR2), > 89% at BRAF V600E and 70 to 89% at BRAF.
Consider `O=C(Nc1cc(F)cc(C(=O)c2ccc3nccnc3c2)c1)Nc1ccc(Cl)c(C(F)(F)F)c1` [Compound C026, 1-(4-chloro-3-(trifluoromethyl)phenyl)-3-(3-fluoro-5-(quinoxaline-6-carbonyl)phenyl)urea], for which the pIC50 with A549 cells was 5.30 to 5.70; in the assay with A375 cells, 5.30 to 6.00. Further, the inhibition at 1 µM was 70 to 89% at KDR (VEGFR2), 70 to 89% at BRAF V600E and < 70% at BRAF.
Consider `O=C(Nc1ccc(F)cc1)Nc1ccc(F)c(C(=O)c2ccc3ncc(N4CCOCC4)nc3c2)c1` [Compound C053, 1-(4-fluoro-3-(3-morpholinoquinoxaline-6-carbonyl)phenyl)-3-(4-fluorophenyl)urea], for which the pIC50 with A549 cells was > 5.70; on KDR (VEGFR2), > 7.00; in the assay with A375 cells, > 6.00. The inhibition at 1 µM on KDR (VEGFR2), on BRAF V600E and at BRAF was > 89% each time.
